Experiments:
Ba/F3 (naive) cells = assay: Cell proliferation inhibition, CellTiter-Glo; assay type: cell-based; details: Mus musculus, BaF3; Ba/F3 not transduced, 72 hours
In short: (§1)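 Ba/F3 lines (naive or RET-fusion-transduced, IL-3 medium) and LC-2/ad cells exposed 72 h to compound, 12 three-fold dilutions spanning 0.3 nM–50 μM final. Viability read by CellTiter-Glo luminescence, in triplicate; GI50 derived from growth ratio (%) versus control.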

[1] = tested on: LC-2/ad cells (with CCDC6-RET gene); assay: Cell proliferation inhibition, CellTiter-Glo; assay type: cell-based; details: Homo sapiens; LC-2/ad lung cancer cell line, 72 hours
In short: as §1

[2] = tested on: Ba/F3 CCDC6-RET (WT) cells; assay: Cell proliferation inhibition, CellTiter-Glo; assay type: cell-based; details: BaF3/CCDC6-RET, 72 hours
In short: as §1

[3] = tested on: Ba/F3 KIF5B-RET (V804M) cells; assay: Cell proliferation inhibition, CellTiter-Glo; assay type: cell-based; details: Mus musculus, BaF3, 72 hours
In short: as §1

TT cells = assay: Cell proliferation inhibition, CellTiter-Glo; assay type: cell-based; details: Homo sapiens; TT thyroid cancer cell line, 72 hours
[4] = tested on: Ba/F3 KIF5B-RET (WT) cells; assay: Cell proliferation inhibition, CellTiter-Glo; assay type: cell-based; details: Mus musculus, BaF3, 72 hours
In short: as §1

FLT3(D835H) = molecular target: T1, FLT3(D835H) (Homo sapiens, UniProt P36888, D835H); assay: ScanMAX Kinase analysis panel (DiscoverX); assay type: binding; details: read-out: adjusted percentage (% control)
T1 construct: purchased DiscoverX ScanMAX Kinase analysis panel
Procedure: The following experiment was performed in order to evaluate the inhibitory activity of the compound according to the present invention against more enzymes. Specifically, for Examples 1 and 3 selected among the Example compounds of the present invention, the enzyme (kinase) selectivity was set to be measured by commissioning DiscoverX, and an experiment was conducted using a ScanMAX™ Kinase analysis panel. In this case, the concentration of the drug treated with the enzyme was set to 1 μM in DMSO, the adjusted percentage (% control) was determined in the same manner as in the following Equation 1, and the results are shown in the following Table 3. (Example compound−Positive control)/(Negative control−Positive control)×100 [Equation 1]
In addition, the enzyme selectivity of the present invention was determined to be active against the corresponding enzyme when the adjusted percentage was <35% (that is, less than 35%).

RET (WT) = molecular target: T2, RET (WT) (Homo sapiens, UniProt P07949); assay: RET enzyme inhibitory ability, ADP-Glo kinase assay; assay type: biochemical; details: ATP 10 μM, 25° C., 1 hour
T2 construct: human RET (658-end, SIGNALCHEM); purchased SIGNALCHEM
T2 sequence (P07949 658-1114 limits assumed): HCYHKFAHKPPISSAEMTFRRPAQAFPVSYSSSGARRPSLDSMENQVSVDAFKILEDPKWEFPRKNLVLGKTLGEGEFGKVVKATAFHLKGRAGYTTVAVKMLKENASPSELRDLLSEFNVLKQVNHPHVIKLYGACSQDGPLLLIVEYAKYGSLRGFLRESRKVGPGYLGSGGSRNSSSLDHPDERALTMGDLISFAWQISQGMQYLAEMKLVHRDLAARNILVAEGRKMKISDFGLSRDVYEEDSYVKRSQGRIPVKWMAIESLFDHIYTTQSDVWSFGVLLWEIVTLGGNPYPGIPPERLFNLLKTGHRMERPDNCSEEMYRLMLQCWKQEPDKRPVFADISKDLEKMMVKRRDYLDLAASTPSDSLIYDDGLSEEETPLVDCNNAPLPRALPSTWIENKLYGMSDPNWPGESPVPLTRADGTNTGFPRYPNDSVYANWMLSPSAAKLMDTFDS
In short: (§2)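 Purified human RET (658-end, 0.8 ng) was reacted with 10 μM ATP and substrate 1 h at 25°C in 40 mM Tris-HCl pH 7.4, 20 mM MgCl2, 0.5 mg/mL BSA, 50 μM DTT. ADP-Glo luminescence was normalised to solvent control; IC50 (nM) from 3 datasets.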

RET (V804M) = RET (V804M) (Homo sapiens, UniProt P07949, V804M); assay: as above; assay type: biochemical; details: ATP 10 μM, 25° C., 1 hour
In short: as §2

CCDC6-RET = molecular target: T3, CCDC6-RET (Homo sapiens, UniProt P07949); assay: as above; assay type: biochemical; details: ATP 10 μM, 25° C., 1 hour
T3 construct: the other entry of the earlier key: CCDC6 (Q16204, Coiled-coil domain-containing protein 6)
In short: as §2

T3 sequence (P07949 with tags, fused parts or gaps): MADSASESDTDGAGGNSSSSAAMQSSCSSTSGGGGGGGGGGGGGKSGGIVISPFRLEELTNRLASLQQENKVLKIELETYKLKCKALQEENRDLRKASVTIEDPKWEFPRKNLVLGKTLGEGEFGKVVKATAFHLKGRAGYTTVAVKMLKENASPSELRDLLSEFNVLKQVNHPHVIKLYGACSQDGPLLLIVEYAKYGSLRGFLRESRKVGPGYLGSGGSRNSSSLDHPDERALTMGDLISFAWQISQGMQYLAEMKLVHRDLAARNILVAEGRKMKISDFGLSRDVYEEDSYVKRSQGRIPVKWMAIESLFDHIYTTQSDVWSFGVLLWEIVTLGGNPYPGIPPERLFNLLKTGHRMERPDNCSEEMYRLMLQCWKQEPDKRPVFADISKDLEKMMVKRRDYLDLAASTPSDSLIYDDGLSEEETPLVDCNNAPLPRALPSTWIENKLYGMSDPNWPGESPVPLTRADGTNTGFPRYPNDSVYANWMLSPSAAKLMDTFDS
Sequence of RET (V804M) (P07949 658-1114 V804M limits assumed): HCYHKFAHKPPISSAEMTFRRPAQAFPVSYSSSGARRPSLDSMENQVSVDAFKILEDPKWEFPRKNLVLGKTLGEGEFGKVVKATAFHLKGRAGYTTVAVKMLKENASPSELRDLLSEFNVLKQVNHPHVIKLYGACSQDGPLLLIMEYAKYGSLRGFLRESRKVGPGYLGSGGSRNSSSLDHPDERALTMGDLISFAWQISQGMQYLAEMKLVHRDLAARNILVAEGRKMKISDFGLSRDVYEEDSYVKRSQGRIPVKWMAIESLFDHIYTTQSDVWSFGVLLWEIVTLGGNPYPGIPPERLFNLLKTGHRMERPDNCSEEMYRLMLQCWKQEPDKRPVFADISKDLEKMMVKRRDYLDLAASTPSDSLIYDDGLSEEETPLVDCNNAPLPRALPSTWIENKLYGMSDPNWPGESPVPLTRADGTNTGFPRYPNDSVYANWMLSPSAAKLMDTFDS

Structure (SMILES) | GI50 (Ba/F3 (naive) cells) [nM] | GI50 [1] [nM] | GI50 [2] [nM] | GI50 [3] [nM] | GI50 (TT cells) [nM] | GI50 [4] [nM] | remaining binding at 1 µM (FLT3(D835H)) [%] | IC50 (RET (WT)) [nM] | IC50 (RET (V804M)) [nM] | IC50 (CCDC6-RET) [nM]
COc1ccc(CN2C3CC2CN(c2ccc(-c4nc(Nc5cc(C)[nH]n5)c5occc5n4)cn2)C3)cn1 [Example 1, 2-(6-(6-((6-methoxypyridin-3-yl)methyl)-3,6-diazabicyclo[3.1.1]heptan-3-yl)pyridin-3-yl)-N-(5-methyl-1H-pyrazol-3-yl)furo[3,2-d]pyrimidin-4-amine] | 4900 | 14 | 59 | 19 | 88 | 19 | 6.7 | 18 | 2.2 | 1.8
COc1ccc(CN2C3CC2CN(c2ccc(-c4nc(Nc5cc(C)[nH]n5)c5ccccc5n4)cn2)C3)cn1 [Example 3, 2-(6-(6-((6-methoxypyridin-3-yl)methyl)-3,6-diazabicyclo [3.1.1]heptan-3-yl)pyridin-3-yl)-N-(5-methyl-1H-pyrazol-3-yl)quinazolin-4-amine] | 2300 | 60 | 51 | 3 | 30 | 13 | 2.7 | 7 | 0.7 | 0.9

— US12281121B2, “N-containing heteroaryl derivative and pharmaceutical composition comprising same as active ingredient for prevention or treatment of cancer” (VORONOI Inc., priority 2019, dated 2025)
